For orientation: pEC50 means the EC50 on a negative log10 scale, so that one unit is a factor of ten.

pEC50: −log10 of the molar value. Starred links: 1 amine or outer side, 2 acyl side, 3 side chain; linkers in the order of their positions; H or OH if unused. Positions of bridges follow the written chain, without caps; N, C: chain ends. Non-standard residues stand in square brackets, D forms with d. Residues, ends and D or L forms follow the SMILES beside them. Chains are numbered I, II in the order given. TATA = O=C(CC[*:1])N1CN(C(=O)CC[*:2])CN(C(=O)CC[*:3])C1; X2 = O=C(CCOCCOCCOCCOCCOCCn1cc(CCC(=O)[*:2])nn1)[*:1]; Hyp = O=C(O)[C@@H]1C[C@@H](O)CN1; hArg = N=C(N)NCCCC[C@H](N)C(=O)O; tBuAla = CC(C)(C)C[C@H](N)C(=O)O; Nle = CCCC[C@H](N)C(=O)O

In data set [1] the target is T1, CD137 (Homo sapiens, UniProt Q07011). Kind of data set: CD137 reporter assay, co-culture with EphA2 tumour cells. The class given is cell-based. Also on record: host or cells: Jurkat reporter cells. Conditions: tumour target EphA2, co-culture with PC3, 6 h. As to the method: (§1) Culture medium referred to as R1 media is prepared by adding 1% FBS to RPMI-1640 (component of Promega kit CS196005). Serial dilutions of test articles in R1 are prepared in a sterile 96 well-plate. Use 25 μl per well of test articles or R1 (as a background control) to designated wells in white cell culture plate. Tumour cells* are harvested and resuspended at a concentration of 400,000 cells/mL in R1 media. Twenty five (25) μL/well tumour cells are used in white cell culture plate. Jurkat cells (Promega kit CS196005, 0.5 mL) are thawed in the water bath and then added to 5 ml pre-warmed R1 medium. Twenty five (25) μL/well Jurkat cells are used in white cell culture plate. Incubate the cells and test articles for 6h at 37° C., 5% CO2. At the end of 6 h, add 75 μl/well Bio-Glo™ (Promega) and incubate for 10 min before reading luminescence in a plate reader (Clariostar, BMG). The fold change relative to cells (Jurkat cells+Cell line used in co-culture) is calculated and plotted in GraphPad Prism as log(agonist) vs response to determine EC50 (nM) and Fold Induction over background (Max)
Background: Reporter assays use an easily measured gene product as a stand-in for the process of interest.

The target in data set [2] is T1, CD137. Kind of data set: CD137 reporter assay, co-culture with PD-L1 expressing cell line RKO. The class given is cell-based. On the set-up: host or cells: Jurkat reporter cells. Conditions: tumour target PD-L1, co-culture with RKO, 6 h. The method, then:
as §1

T1 sequence (Q07011 24-255): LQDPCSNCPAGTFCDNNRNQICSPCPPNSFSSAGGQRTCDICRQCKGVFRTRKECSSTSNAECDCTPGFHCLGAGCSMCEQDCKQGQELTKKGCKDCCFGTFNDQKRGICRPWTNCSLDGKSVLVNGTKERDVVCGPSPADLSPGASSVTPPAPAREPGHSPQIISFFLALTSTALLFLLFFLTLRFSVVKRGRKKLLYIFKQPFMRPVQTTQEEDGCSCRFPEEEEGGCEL

On to `CCCC[C@@H]1NC(=O)[C@H](Cc2ccc(O)cc2)NC(=O)[C@@H]2CCCN2C(=O)[C@H](CC(=O)O)NC(=O)[C@H](C)NC(=O)[C@H](Cc2ccccc2)NC(=O)[C@@H]2CSCCC(=O)N3CN(CN(C3)C(=O)CCSC[C@@H](C(=O)N[C@@H](C)C(N)=O)NC1=O)C(=O)CCSC[C@H](NC(C)=O)C(=O)N[C@@H](CC(C)(C)C)C(=O)N1CCC[C@H]1C(=O)N[C@@H](CCCCNC(=O)CCc1cn(CCOCCOCCOCCOCCOCCC(=O)N[C@@H](C)C(=O)N[C@@H](CCCCNC(=N)N)C(=O)N[C@@H](CC(=O)O)C(=O)N[C@H]3CSCCC(=O)N4CN5CN(C4)C(=O)CCSC[C@H](NC(=O)[C@H](CC(C)C)NC(=O)[C@@H]4CCCN4C(=O)[C@H](CC(N)=O)NC(=O)[C@H](C(C)C)NC(=O)[C@H](CC(C)C)NC(=O)[C@@H]4C[C@@H](O)CN4C3=O)C(=O)N[C@@H](CC(C)C)C(=O)N[C@@H](Cc3c[nH]cn3)C(=O)N3CCC[C@H]3C(=O)N[C@H](CC(=O)O)C(=O)N[C@@H](Cc3c[nH]c4ccccc34)C(=O)N[C@@H](CCCCNC(=N)N)C(=O)N[C@H](C(N)=O)CSCCC5=O)nn1)C(=O)N[C@H](C)C(=O)N1CCC[C@H]1C(=O)N[C@@H](Cc1ccc(O)cc1)C(=O)N2` [BCY10574] (I: A[hArg]DC[Hyp]LVNPLCLHP[dD]W[hArg]C-NH2 / II: Ac-C[tBuAla]PK[dA]PYCFADPY[Nle]CA-NH2; linker I:4-I:11-I:18, II:1-II:8-II:15 via TATA; linker I:N-II:4 via X2), for which, at CD137 [1], the pEC50 was 9.00 and the “Fold Induction over Background” value is listed as 32 fold.

For `CCCC[C@@H]1NC(=O)[C@H](Cc2ccc(O)cc2)NC(=O)[C@@H]2CCCN2C(=O)[C@H](CC(=O)O)NC(=O)[C@H](C)NC(=O)[C@H](Cc2ccccc2)NC(=O)[C@@H]2CSCCC(=O)N3CN(CN(C3)C(=O)CCSC[C@@H](C(=O)N[C@@H](C)C(N)=O)NC1=O)C(=O)CCSC[C@H](NC(C)=O)C(=O)N[C@@H](CC(C)(C)C)C(=O)N1CCC[C@H]1C(=O)N[C@@H](CCC(=O)O)C(=O)N[C@H](CCCCNC(=O)CCc1cn(CCOCCOCCOCCOCCOCCC(=O)N[C@@H](C)C(=O)N[C@@H](CCCCNC(=N)N)C(=O)N[C@@H](CC(=O)O)C(=O)N[C@H]3CSCCC(=O)N4CN5CN(C4)C(=O)CCSC[C@H](NC(=O)[C@H](CC(C)C)NC(=O)[C@@H]4CCCN4C(=O)[C@H](CC(N)=O)NC(=O)[C@H](C(C)C)NC(=O)[C@H](CC(C)C)NC(=O)[C@@H]4C[C@@H](O)CN4C3=O)C(=O)N[C@@H](CC(C)C)C(=O)N[C@@H](Cc3c[nH]cn3)C(=O)N3CCC[C@H]3C(=O)N[C@H](CC(=O)O)C(=O)N[C@@H](Cc3c[nH]c4ccccc34)C(=O)N[C@@H](CCCCNC(=N)N)C(=O)N[C@H](C(N)=O)CSCCC5=O)nn1)C(=O)N1CCC[C@H]1C(=O)N[C@@H](Cc1ccc(O)cc1)C(=O)N2` [BCY10575] (I: A[hArg]DC[Hyp]LVNPLCLHP[dD]W[hArg]C-NH2 / II: Ac-C[tBuAla]PE[dK]PYCFADPY[Nle]CA-NH2; linker I:4-I:11-I:18, II:1-II:8-II:15 via TATA; linker I:N-II:5 via X2), at CD137 [1], the pEC50 was 9.21 and the “Fold Induction over Background” value was determined as 38 fold.

Consider `CCCC[C@@H]1NC(=O)[C@H](Cc2ccc(O)cc2)NC(=O)[C@@H]2CCCN2C(=O)[C@H](CC(=O)O)NC(=O)[C@H](C)NC(=O)[C@H](Cc2ccccc2)NC(=O)[C@@H]2CSCCC(=O)N3CN(CN(C3)C(=O)CCSC[C@@H](C(=O)N[C@@H](CNC(=O)CCc3cn(CCOCCOCCOCCOCCOCCC(=O)N[C@@H](C)C(=O)N[C@@H](CCCCNC(=N)N)C(=O)N[C@@H](CC(=O)O)C(=O)N[C@H]4CSCCC(=O)N5CN6CN(C5)C(=O)CCSC[C@H](NC(=O)[C@H](CC(C)C)NC(=O)[C@@H]5CCCN5C(=O)[C@H](CC(N)=O)NC(=O)[C@H](C(C)C)NC(=O)[C@H](CC(C)C)NC(=O)[C@@H]5C[C@@H](O)CN5C4=O)C(=O)N[C@@H](CC(C)C)C(=O)N[C@@H](Cc4c[nH]cn4)C(=O)N4CCC[C@H]4C(=O)N[C@H](CC(=O)O)C(=O)N[C@@H](Cc4c[nH]c5ccccc45)C(=O)N[C@@H](CCCCNC(=N)N)C(=O)N[C@H](C(N)=O)CSCCC6=O)nn3)C(N)=O)NC1=O)C(=O)CCSC[C@H](NC(C)=O)C(=O)N[C@@H](CC(C)(C)C)C(=O)N1CCC[C@H]1C(=O)N[C@@H](CCC(=O)O)C(=O)N[C@H](C)C(=O)N1CCC[C@H]1C(=O)N[C@@H](Cc1ccc(O)cc1)C(=O)N2` [BCY10576], for which, at CD137 [1], the pEC50 is 9.29 and the “Fold Induction over Background” value stood at 38 fold.

On to `CCCC[C@@H]1NC(=O)[C@H](Cc2ccc(O)cc2)NC(=O)[C@@H]2CCCN2C(=O)[C@H](CC(=O)O)NC(=O)[C@H](C)NC(=O)[C@H](Cc2ccccc2)NC(=O)[C@@H]2CSCCC(=O)N3CN(CN(C3)C(=O)CCSC[C@@H](C(=O)N[C@@H](CNC(=O)Cn3cc(CCC(=O)NCCC(=O)N(C)CC(=O)N(C)CC(=O)N(C)CC(=O)N(C)CC(=O)N(C)CC(=O)N(C)CC(=O)N(C)CC(=O)N(C)CC(=O)N(C)CC(=O)N(C)CC(=O)N[C@@H](C)C(=O)N[C@@H](CCCCNC(=N)N)C(=O)N[C@@H](CC(=O)O)C(=O)N[C@H]4CSCCC(=O)N5CN6CN(C5)C(=O)CCSC[C@H](NC(=O)[C@H](CC(C)C)NC(=O)[C@@H]5CCCN5C(=O)[C@H](CC(N)=O)NC(=O)[C@H](C(C)C)NC(=O)[C@H](CC(C)C)NC(=O)[C@@H]5C[C@@H](O)CN5C4=O)C(=O)N[C@@H](CC(C)C)C(=O)N[C@@H](Cc4c[nH]cn4)C(=O)N4CCC[C@H]4C(=O)N[C@H](CC(=O)O)C(=O)N[C@@H](Cc4c[nH]c5ccccc45)C(=O)N[C@@H](CCCCNC(=N)N)C(=O)N[C@H](C(N)=O)CSCCC6=O)nn3)C(N)=O)NC1=O)C(=O)CCSC[C@H](NC(C)=O)C(=O)N[C@@H](CC(C)(C)C)C(=O)N1CCC[C@H]1C(=O)N[C@@H](CCC(=O)O)C(=O)N[C@H](C)C(=O)N1CCC[C@H]1C(=O)N[C@@H](Cc1ccc(O)cc1)C(=O)N2` [BCY10577], for which, on CD137 [1], the pEC50 was 9.55 and the “Fold Induction over Background” value is listed as 37 fold.

As for `CCCC[C@@H]1NC(=O)[C@H](Cc2ccc(O)cc2)NC(=O)[C@@H]2CCCN2C(=O)[C@H](CC(=O)O)NC(=O)[C@H](C)NC(=O)[C@H](Cc2ccccc2)NC(=O)[C@@H]2CSCCC(=O)N3CN(CN(C3)C(=O)CCSC[C@@H](C(=O)N[C@@H](CNC(=O)CCOCCOCCOCCOCCOCCOCCOCCOCCOCCOCCOCCOCCn3cc(CCC(=O)NCCC(=O)N(C)CC(=O)N(C)CC(=O)N(C)CC(=O)N(C)CC(=O)N(C)CC(=O)N(C)CC(=O)N(C)CC(=O)N(C)CC(=O)N(C)CC(=O)N(C)CC(=O)N[C@@H](CO)C(=O)N[C@@H](CC(=O)O)C(=O)N[C@@H](CCCCN)C(=O)N[C@H]4CSCCC(=O)N5CN6CN(C5)C(=O)CCSC[C@H](NC(=O)[C@H](CCSC)NC(=O)[C@H]([C@@H](C)O)NC(=O)[C@H](CC(C)C)NC(=O)[C@H](Cc5c[nH]c7ccccc57)NC(=O)CNC(=O)[C@H](C)NC(=O)[C@H](CO)NC4=O)C(=O)N[C@@H](CCC(N)=O)C(=O)N[C@@H](CCCCN)C(=O)N[C@@H](CC(C)C)C(=O)N[C@@H](Cc4c[nH]cn4)C(=O)N[C@@H](CC(C)C)C(=O)N[C@H](C(N)=O)CSCCC6=O)nn3)C(N)=O)NC1=O)C(=O)CCSC[C@H](NC(C)=O)C(=O)N[C@@H](CC(C)(C)C)C(=O)N1CCC[C@H]1C(=O)N[C@@H](CCC(=O)O)C(=O)N[C@H](C)C(=O)N1CCC[C@H]1C(=O)N[C@@H](Cc1ccc(O)cc1)C(=O)N2` [BCY10580], on CD137 [2], the pEC50 is 7.55 and the “Fold Induction over Background” value turned out to be 3 fold.

On to `CCCC[C@@H]1NC(=O)[C@H](Cc2ccc(O)cc2)NC(=O)[C@@H]2CCCN2C(=O)[C@H](CC(=O)O)NC(=O)[C@H](C)NC(=O)[C@H](Cc2ccccc2)NC(=O)[C@@H]2CSCCC(=O)N3CN(CN(C3)C(=O)CCSC[C@@H](C(=O)N[C@@H](CNC(=O)CCOCCOCCOCCOCCOCCOCCOCCOCCOCCOCCOCCOCCn3cc(CCC(=O)NCCCC[C@H](NC(=O)CN(C)C(=O)CN(C)C(=O)CN(C)C(=O)CN(C)C(=O)CN(C)C(=O)CN(C)C(=O)CN(C)C(=O)CN(C)C(=O)CN(C)C(=O)CN(C)C(=O)[C@@H]4CSCCC(=O)N5CN6CN(C5)C(=O)CCSC[C@H](NC(=O)[C@H](CCSC)NC(=O)[C@H]([C@@H](C)O)NC(=O)[C@H](CC(C)C)NC(=O)[C@H](Cc5c[nH]c7ccccc57)NC(=O)CNC(=O)[C@H](C)NC(=O)[C@H](CO)NC(=O)[C@@H](NC(=O)[C@H](CCCCN)NC(=O)[C@H](CC(=O)O)NC(=O)[C@@H](N)CO)CSCCC6=O)C(=O)N[C@@H](CCC(N)=O)C(=O)N[C@@H](CCCCN)C(=O)N[C@@H](CC(C)C)C(=O)N[C@@H](Cc5c[nH]cn5)C(=O)N[C@@H](CC(C)C)C(=O)N4)C(N)=O)nn3)C(N)=O)NC1=O)C(=O)CCSC[C@H](NC(C)=O)C(=O)N[C@@H](CC(C)(C)C)C(=O)N1CCC[C@H]1C(=O)N[C@@H](CCC(=O)O)C(=O)N[C@H](C)C(=O)N1CCC[C@H]1C(=O)N[C@@H](Cc1ccc(O)cc1)C(=O)N2` [BCY10581], for which, at CD137 [2], the negative logarithm of the EC50 (pEC50) is 7.74 and the “Fold Induction over Background” value was determined as 6 fold.

Source of the values: patent US11453703B2, “Heterotandem bicyclic peptide complexes” (BicycleTX Limited, priority 2018, dated 2022).
